Paper PMC8550792, “Evolution of kinase polypharmacology across HSP90 drug discovery” (Cell Chemical Biology, 2021)

Legend:
Assay in all cases: biochemical
Format in all cases: biochemical
382 unique human kinases [1] = target: T1, 382 unique human kinases (Homo sapiens, UniProt P08581, Y1235D); conditions: c-MET (Y1235D), 10 uM; for remaining activity at 10 µM: read-out: % Enzyme Activity (relative to DMSO controls)
T1 construct: purchased Reaction Biology (HotSpot contract assay)

382 unique human kinases [2] = target: T2, 382 unique human kinases (Homo sapiens, UniProt P22455, V550L); conditions: FGFR4 (V550L), 10 uM; for remaining activity at 10 µM: read-out: % Enzyme Activity (relative to DMSO controls)
T2 construct: purchased Reaction Biology (HotSpot contract assay)

382 unique human kinases [3] = target: T3, 382 unique human kinases (Homo sapiens, UniProt P35968); conditions: kinase KDR/VEGFR2, compound 10 uM; for remaining activity at 10 µM: read-out: % Enzyme Activity (relative to DMSO controls)
T3 construct: purchased Reaction Biology (HotSpot contract assay)

382 unique human kinases [4] = target: T4, 382 unique human kinases (Homo sapiens, UniProt P52564); conditions: MKK6, 10 uM; for remaining activity at 10 µM: read-out: % Enzyme Activity (relative to DMSO controls)
T4 construct: purchased Reaction Biology (HotSpot contract assay)
T4 sequence (P52564 1-334): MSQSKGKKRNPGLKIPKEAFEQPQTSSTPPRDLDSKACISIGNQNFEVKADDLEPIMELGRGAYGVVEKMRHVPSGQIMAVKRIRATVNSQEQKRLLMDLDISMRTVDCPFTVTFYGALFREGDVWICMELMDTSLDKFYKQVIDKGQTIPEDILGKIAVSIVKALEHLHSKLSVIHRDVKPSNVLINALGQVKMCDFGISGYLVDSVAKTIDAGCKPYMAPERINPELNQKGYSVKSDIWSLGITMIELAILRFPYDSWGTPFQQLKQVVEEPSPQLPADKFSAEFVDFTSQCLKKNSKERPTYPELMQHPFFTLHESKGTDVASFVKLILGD

382 unique human kinases [5] = target: T5, 382 unique human kinases (Homo sapiens, UniProt Q12866, A708S); conditions: c-MER (A708S), 10 uM; for remaining activity at 10 µM: read-out: % Enzyme Activity (relative to DMSO controls)
T5 construct: purchased Reaction Biology (HotSpot contract assay)
T5 sequence (Q12866 21-999 A708S): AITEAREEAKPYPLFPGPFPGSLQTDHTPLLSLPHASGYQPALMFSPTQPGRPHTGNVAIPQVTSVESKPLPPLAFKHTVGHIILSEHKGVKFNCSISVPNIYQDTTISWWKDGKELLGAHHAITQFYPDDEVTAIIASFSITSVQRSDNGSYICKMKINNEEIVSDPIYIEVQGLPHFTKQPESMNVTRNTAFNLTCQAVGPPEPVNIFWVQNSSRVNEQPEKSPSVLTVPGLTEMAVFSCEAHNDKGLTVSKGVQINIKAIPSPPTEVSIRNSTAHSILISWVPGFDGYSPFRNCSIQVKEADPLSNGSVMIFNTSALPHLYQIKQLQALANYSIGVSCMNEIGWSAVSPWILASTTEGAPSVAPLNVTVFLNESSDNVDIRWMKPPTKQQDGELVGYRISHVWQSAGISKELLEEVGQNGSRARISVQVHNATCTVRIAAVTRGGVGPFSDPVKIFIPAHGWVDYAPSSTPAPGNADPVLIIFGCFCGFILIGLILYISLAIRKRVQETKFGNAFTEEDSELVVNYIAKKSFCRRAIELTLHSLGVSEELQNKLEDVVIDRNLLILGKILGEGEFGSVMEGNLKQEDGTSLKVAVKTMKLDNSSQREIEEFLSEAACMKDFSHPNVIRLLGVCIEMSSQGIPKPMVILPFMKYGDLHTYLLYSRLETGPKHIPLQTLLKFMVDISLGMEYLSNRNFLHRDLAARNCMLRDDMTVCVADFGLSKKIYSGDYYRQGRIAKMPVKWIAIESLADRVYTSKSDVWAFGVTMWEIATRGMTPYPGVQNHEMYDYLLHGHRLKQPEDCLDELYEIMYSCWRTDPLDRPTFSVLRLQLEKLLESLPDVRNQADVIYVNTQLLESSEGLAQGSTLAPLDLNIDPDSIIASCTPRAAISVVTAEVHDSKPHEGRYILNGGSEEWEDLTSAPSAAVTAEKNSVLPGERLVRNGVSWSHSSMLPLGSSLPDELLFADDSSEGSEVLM

382 unique human kinases [6] = target: T6, 382 unique human kinases (Homo sapiens, UniProt Q14289); conditions: PYK2, 10 uM; for remaining activity at 10 µM: read-out: % Enzyme Activity (relative to DMSO controls)
T6 construct: purchased Reaction Biology (HotSpot contract assay)
T6 sequence (Q14289 whole entry): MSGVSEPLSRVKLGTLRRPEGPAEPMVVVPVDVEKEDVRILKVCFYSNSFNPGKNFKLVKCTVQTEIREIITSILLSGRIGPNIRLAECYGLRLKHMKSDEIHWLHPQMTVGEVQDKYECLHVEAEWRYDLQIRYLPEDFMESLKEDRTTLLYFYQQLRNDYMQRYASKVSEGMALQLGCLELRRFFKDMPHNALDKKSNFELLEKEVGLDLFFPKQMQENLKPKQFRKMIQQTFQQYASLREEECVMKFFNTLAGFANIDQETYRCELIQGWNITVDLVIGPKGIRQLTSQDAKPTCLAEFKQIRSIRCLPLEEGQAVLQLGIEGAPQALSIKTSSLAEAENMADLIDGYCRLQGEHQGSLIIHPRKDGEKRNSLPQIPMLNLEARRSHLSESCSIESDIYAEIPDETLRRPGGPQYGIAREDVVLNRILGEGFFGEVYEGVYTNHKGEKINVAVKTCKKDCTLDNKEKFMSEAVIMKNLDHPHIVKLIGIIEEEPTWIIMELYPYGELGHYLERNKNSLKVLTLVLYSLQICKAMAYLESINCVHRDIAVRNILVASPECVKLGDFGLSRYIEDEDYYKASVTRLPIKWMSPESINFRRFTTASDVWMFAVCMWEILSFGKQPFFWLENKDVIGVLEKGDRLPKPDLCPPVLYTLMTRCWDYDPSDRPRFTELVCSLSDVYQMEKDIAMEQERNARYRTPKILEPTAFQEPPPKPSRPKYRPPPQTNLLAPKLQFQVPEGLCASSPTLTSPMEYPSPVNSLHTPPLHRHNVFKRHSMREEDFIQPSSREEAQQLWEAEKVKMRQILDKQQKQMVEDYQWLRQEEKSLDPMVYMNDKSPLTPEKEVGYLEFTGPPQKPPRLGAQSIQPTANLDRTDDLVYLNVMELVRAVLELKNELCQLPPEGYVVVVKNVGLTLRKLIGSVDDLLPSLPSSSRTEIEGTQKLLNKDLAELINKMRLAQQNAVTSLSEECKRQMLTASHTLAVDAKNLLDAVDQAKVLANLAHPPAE

382 unique human kinases [7] = target: T7, 382 unique human kinases (Homo sapiens, UniProt Q9Y243, G171R); conditions: AKT3 (G171R), 10 uM; for remaining activity at 10 µM: read-out: % Enzyme Activity (relative to DMSO controls)
T7 construct: purchased Reaction Biology (HotSpot contract assay)
T7 sequence (Q9Y243 whole entry G171R): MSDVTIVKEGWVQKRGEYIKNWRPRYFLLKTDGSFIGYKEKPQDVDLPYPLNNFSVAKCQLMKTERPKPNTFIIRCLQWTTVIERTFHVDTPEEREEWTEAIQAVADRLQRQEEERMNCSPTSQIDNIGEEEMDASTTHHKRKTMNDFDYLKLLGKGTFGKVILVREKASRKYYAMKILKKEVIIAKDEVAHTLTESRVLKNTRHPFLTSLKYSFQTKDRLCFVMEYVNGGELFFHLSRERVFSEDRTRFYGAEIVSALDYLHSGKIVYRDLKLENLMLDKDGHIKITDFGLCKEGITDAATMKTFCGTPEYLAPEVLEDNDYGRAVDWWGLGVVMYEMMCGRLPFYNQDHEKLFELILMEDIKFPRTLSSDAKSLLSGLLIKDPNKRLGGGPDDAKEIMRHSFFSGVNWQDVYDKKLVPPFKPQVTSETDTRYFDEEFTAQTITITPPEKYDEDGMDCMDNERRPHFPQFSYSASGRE

382 unique human kinases [8] = target: T8, 382 unique human kinases (Homo sapiens, UniProt Q9Y3S1); conditions: WNK2, 10 uM; for remaining activity at 10 µM: read-out: % Enzyme Activity (relative to DMSO controls)
T8 construct: purchased Reaction Biology (HotSpot contract assay)

382 unique human kinases [9] = target: T9, 382 unique human kinases (Homo sapiens, UniProt O15075); conditions: DCAMKL1, 10 uM; for remaining activity at 10 µM: read-out: % Enzyme Activity (relative to DMSO controls)
T9 construct: purchased Reaction Biology (HotSpot contract assay)
T9 sequence (O15075 whole entry): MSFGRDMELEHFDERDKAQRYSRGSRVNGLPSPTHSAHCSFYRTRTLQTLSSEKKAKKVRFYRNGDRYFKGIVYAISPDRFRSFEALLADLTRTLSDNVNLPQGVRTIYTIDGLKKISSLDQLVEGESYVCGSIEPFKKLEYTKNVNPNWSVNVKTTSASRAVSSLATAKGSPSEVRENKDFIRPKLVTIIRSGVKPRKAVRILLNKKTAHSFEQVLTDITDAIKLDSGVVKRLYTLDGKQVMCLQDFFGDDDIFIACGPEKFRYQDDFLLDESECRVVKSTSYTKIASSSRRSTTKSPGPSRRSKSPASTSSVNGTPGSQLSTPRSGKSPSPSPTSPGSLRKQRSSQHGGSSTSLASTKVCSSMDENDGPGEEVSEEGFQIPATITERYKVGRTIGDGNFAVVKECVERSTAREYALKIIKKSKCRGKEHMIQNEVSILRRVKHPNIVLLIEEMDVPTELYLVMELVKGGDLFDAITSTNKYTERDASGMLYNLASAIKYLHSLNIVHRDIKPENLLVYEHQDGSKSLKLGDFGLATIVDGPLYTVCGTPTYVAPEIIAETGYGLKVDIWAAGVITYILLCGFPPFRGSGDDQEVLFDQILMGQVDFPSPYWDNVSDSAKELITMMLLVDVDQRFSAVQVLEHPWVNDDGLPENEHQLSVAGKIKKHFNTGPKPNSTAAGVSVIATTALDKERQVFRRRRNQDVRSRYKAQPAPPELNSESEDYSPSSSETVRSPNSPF

382 unique human kinases [10] = target: T10, 382 unique human kinases (Homo sapiens, UniProt P00519, F317I); conditions: ABL1 (F317I), [ATP] 5 µM, compound 10 uM; for remaining activity at 10 µM: read-out: % Enzyme Activity (relative to DMSO controls)
T10 construct: purchased Reaction Biology (HotSpot contract assay)
T10 sequence (P00519 whole entry F317I): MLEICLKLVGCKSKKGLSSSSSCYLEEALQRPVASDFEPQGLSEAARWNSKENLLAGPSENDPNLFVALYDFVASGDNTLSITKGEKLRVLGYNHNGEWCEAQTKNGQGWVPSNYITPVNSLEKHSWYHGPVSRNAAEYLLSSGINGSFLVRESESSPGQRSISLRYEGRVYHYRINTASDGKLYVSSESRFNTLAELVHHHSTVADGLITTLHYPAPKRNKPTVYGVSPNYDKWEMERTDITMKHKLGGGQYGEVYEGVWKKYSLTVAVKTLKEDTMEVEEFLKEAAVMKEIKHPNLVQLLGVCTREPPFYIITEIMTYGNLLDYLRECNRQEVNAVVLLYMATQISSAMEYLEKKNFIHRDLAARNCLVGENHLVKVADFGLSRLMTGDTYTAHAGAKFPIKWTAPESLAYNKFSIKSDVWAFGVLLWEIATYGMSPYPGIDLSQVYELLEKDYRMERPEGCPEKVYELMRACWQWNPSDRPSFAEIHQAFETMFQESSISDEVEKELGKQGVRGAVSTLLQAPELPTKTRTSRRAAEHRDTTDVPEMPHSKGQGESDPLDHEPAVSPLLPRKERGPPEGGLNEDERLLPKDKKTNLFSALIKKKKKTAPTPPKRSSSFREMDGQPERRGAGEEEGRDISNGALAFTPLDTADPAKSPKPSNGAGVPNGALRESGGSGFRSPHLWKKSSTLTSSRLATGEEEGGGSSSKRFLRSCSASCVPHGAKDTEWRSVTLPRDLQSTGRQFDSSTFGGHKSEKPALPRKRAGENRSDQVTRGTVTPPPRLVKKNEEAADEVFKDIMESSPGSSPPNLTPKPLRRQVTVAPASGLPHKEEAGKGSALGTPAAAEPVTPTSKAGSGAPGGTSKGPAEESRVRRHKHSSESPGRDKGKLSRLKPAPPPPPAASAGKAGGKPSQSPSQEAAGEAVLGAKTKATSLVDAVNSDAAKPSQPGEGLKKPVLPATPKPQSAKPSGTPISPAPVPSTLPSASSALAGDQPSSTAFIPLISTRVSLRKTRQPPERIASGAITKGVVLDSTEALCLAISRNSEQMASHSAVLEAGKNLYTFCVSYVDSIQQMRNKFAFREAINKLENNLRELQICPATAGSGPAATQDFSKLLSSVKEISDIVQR

382 unique human kinases [11] = target: T11, 382 unique human kinases (Homo sapiens, UniProt P00533, DEL747-749); conditions: EGFR (d747-749), 10 uM; for remaining activity at 10 µM: read-out: % Enzyme Activity (relative to DMSO controls)
T11 construct: purchased Reaction Biology (HotSpot contract assay)

382 unique human kinases [12] = target: T12, 382 unique human kinases (Homo sapiens, UniProt P21802, V564F); conditions: FGFR2 (V564F), [ATP] 30 µM, compound 10 uM; for remaining activity at 10 µM: read-out: % Enzyme Activity (relative to DMSO controls)
T12 construct: purchased Reaction Biology (HotSpot contract assay)

382 unique human kinases [13] = target: T13, 382 unique human kinases (Homo sapiens, UniProt Q06187); conditions: BTK, [ATP] 50 µM, compound 10 uM; for remaining activity at 10 µM: read-out: % Enzyme Activity (relative to DMSO controls)
T13 construct: purchased Reaction Biology (HotSpot contract assay)
T13 sequence (Q06187 whole entry): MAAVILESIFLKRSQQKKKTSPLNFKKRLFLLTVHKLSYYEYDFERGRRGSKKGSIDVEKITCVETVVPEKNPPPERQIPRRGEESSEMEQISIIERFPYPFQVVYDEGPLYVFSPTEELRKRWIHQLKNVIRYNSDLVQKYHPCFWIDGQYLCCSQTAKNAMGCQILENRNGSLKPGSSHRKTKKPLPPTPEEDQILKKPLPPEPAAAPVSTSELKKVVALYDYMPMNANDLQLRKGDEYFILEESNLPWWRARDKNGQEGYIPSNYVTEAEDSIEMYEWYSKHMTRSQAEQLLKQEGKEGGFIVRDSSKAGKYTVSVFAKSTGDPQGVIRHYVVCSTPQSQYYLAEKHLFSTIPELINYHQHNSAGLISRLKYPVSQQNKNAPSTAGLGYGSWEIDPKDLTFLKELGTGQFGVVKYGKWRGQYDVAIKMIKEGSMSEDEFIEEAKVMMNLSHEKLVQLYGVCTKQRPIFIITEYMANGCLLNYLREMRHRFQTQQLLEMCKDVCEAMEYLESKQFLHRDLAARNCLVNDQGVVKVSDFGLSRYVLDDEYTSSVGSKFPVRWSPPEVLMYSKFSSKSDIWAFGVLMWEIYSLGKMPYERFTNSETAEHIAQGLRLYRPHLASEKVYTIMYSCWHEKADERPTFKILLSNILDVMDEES

382 unique human kinases [14] = target: T14, 382 unique human kinases (Homo sapiens, UniProt Q15120); conditions: PDK3/PDHK3, [ATP] 30 µM, compound 10 uM; for remaining activity at 10 µM: read-out: % Enzyme Activity (relative to DMSO controls)
T14 construct: purchased Reaction Biology (HotSpot contract assay)
T14 sequence (Q15120 whole entry): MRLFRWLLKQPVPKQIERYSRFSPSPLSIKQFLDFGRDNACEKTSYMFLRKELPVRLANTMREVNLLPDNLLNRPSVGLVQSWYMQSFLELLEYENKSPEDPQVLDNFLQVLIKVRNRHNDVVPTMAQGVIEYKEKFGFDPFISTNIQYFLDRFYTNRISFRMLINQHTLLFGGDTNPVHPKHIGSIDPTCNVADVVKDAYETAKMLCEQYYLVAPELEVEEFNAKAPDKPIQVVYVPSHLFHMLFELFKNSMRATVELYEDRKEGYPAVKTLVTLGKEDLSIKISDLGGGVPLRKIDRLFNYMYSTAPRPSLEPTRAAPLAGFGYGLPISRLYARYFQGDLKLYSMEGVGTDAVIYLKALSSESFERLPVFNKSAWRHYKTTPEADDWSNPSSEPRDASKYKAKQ

382 unique human kinases [15] = target: T15, 382 unique human kinases (Homo sapiens, UniProt Q9H4B4); conditions: PLK3, [ATP] 100 µM, compound 10 uM; for remaining activity at 10 µM: read-out: % Enzyme Activity (relative to DMSO controls)
T15 construct: purchased Reaction Biology (HotSpot contract assay)
T15 sequence (Q9H4B4 whole entry): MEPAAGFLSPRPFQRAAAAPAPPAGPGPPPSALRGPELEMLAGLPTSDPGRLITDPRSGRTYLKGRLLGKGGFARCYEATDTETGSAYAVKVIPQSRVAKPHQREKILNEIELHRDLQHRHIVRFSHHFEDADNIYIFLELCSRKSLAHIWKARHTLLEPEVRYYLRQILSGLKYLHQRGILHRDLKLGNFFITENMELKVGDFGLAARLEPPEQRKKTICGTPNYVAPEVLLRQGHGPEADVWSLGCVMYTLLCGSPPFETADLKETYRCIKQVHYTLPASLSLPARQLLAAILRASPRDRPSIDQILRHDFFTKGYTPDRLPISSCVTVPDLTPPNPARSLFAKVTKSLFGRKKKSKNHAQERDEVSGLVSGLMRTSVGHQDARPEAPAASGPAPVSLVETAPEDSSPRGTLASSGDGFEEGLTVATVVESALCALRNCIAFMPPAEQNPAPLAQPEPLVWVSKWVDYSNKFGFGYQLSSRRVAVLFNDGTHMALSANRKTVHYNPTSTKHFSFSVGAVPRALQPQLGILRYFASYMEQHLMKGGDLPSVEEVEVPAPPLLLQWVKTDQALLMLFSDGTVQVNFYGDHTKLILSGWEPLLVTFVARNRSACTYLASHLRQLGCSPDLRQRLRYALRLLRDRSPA

Row | SMILES | remaining activity at 10 µM (382 unique human kinases [1]) [%] | remaining activity at 10 µM (382 unique human kinases [2]) [%] | remaining activity at 10 µM (382 unique human kinases [3]) [%] | remaining activity at 10 µM (382 unique human kinases [4]) [%] | remaining activity at 10 µM (382 unique human kinases [5]) [%] | remaining activity at 10 µM (382 unique human kinases [6]) [%] | remaining activity at 10 µM (382 unique human kinases [7]) [%] | remaining activity at 10 µM (382 unique human kinases [8]) [%] | remaining activity at 10 µM (382 unique human kinases [9]) [%] | remaining activity at 10 µM (382 unique human kinases [10]) [%] | remaining activity at 10 µM (382 unique human kinases [11]) [%] | remaining activity at 10 µM (382 unique human kinases [12]) [%] | remaining activity at 10 µM (382 unique human kinases [13]) [%] | remaining activity at 10 µM (382 unique human kinases [14]) [%] | remaining activity at 10 µM (382 unique human kinases [15]) [%] | other results
1 | CC(C)c1cc(-c2n[nH]c(=O)n2-c2ccc3c(ccn3C)c2)c(O)cc1O [Ganetespib (STA9090)] | 102 | 76.1 | 88.7 | 72.9 | 72.7 | 78.5 | 67.1 | 59.5 | – | – | – | – | – | – | – | –
2 | CC(C)c1cc(-c2n[nH]c(=O)n2-c2ccc3c(ccn3C)c2)c(O)cc1O [Ganetespib] | – | – | – | – | – | – | – | – | 113 | 2.88 | 96.5 | 41.2 | 56 | 22.3 | 39.6 | –
3 | CCNC(=O)c1noc(-c2cc(C(C)C)c(O)cc2O)c1-c1ccc(CN2CCOCC2)cc1 [Luminespib] | – | – | – | – | – | – | – | – | 96.9 | 25.7 | 99.3 | 99.4 | 74.9 | 76.8 | 99.4 | % Enzyme Activity (relative to DMSO controls) (382 unique human kinases [9]): 95.95%; % Enzyme Activity (relative to DMSO controls) (382 unique human kinases [10]): 24.59%; % Enzyme Activity (relative to DMSO controls) (382 unique human kinases [11]): 98.26%; % Enzyme Activity (relative to DMSO controls) (382 unique human kinases [12]): 98.77%; % Enzyme Activity (relative to DMSO controls) (382 unique human kinases [13]): 74.40%; % Enzyme Activity (relative to DMSO controls) (382 unique human kinases [14]): 75.85%; % Enzyme Activity (relative to DMSO controls) (382 unique human kinases [15]): 99.40%
4 | CCNC(=O)c1noc(-c2cc(C(C)C)c(O)cc2O)c1-c1ccc(CN2CCOCC2)cc1 [Luminespib (AUY-922)] | 73.3 | 101 | 101 | 100 | 98.6 | 98.8 | 98.6 | 107 | – | – | – | – | – | – | – | % Enzyme Activity (relative to DMSO controls) (382 unique human kinases [1]): 71.05%; % Enzyme Activity (relative to DMSO controls) (382 unique human kinases [2]): 101.11%; % Enzyme Activity (relative to DMSO controls) (382 unique human kinases [3]): 99.89%; % Enzyme Activity (relative to DMSO controls) (382 unique human kinases [4]): 98.81%; % Enzyme Activity (relative to DMSO controls) (382 unique human kinases [5]): 96.08%; % Enzyme Activity (relative to DMSO controls) (382 unique human kinases [6]): 97.56%; % Enzyme Activity (relative to DMSO controls) (382 unique human kinases [7]): 93.37%; % Enzyme Activity (relative to DMSO controls) (382 unique human kinases [8]): 106.80%
